Data set [1] can be described thus: Inhibition of mouse brain synaptosomal Lysophosphatidylcholine acyltransferase using substrate [32P]lysophosphatidylcholine and oleoyl-CoA.
A short description of data set [2]: Molar volume, Vm of the compound at zero temperature. The class given is physicochemical.
Data set [3] in a line: Antihemolytic potency against hypotonic lysis-induced erythrocytes (unknown origin) assessed as stabilization. The class given is functional, Erythrocyte.

Broadly, the pKi is the negative decadic logarithm of the Ki, by convention in mol/L.

Consider `CC(C)[C@]12CC(=O)[C@H](C)[C@H]1C2`, for which the pKi in data set [1] is 3.15. Besides, the Vm in data set [2] came out at 1.132 ×10⁻⁴ m3/mol. In data set [3], the pAH50 worked out at 3.

`CCCCCCCCCCO` [DECANOL] returned a pKi in data set [1] of 3.77. Moreover, in data set [2], the Vm came to 1.576 ×10⁻⁴ m3/mol. In addition, in data set [3], the pAH50 worked out at 5.

On to `CCCCCCCCO` [OCTANOL], for which the pKi in data set [1] is listed as 2.77. Besides, in data set [2], the Vm is 1.295 ×10⁻⁴ m3/mol. In data set [3], the pAH50 turned out to be 3.63.

The molecule `CCCCCCCCCO` [NONANOL] gave a pKi in data set [1] of 3.24. Besides, in data set [3], the pAH50 is 4.39.

`CCCCCCCCCCCCO` [DODECANOL] registered a pKi in data set [1] of 3.39. In data set [2], this molecule yielded a Vm of 1.858 ×10⁻⁴ m3/mol. In data set [3], the pAH50 is given as 5.27.

In data set [1], `CCCCCc1cc(O)c2c(c1)OC(C)(C)[C@@H]1CCC(CO)=C[C@@H]21` returned a pKi of 4.07. Moreover, the Vm in data set [2] was found to be 2.746 ×10⁻⁴ m3/mol. Also, the pAH50 in data set [3] was found to be 3.72.

As for `Oc1ccc(Cl)cc1` [PARACHLOROPHENOL], in data set [1], the pKi is 2.74. Besides, the Vm in data set [2] was 8.975 ×10⁻⁵ m3/mol. The pAH50 in data set [3] is reported as 3.13.

In data set [1], `CN(C)CCCN1c2ccccc2Sc2ccc(Cl)cc21` [CHLORPROMAZINE] registered a pKi of 3.1. In data set [2], this molecule registered a Vm of 2.406 ×10⁻⁴ m3/mol. In data set [3], the pAH50 turned out to be 5.09.

In data set [1], `CCCCCc1cc(O)c2c(c1)OC(C)(C)[C@@H]1CC=C(C)C[C@@H]21` [DELTA-8-TETRAHYDROCANNABINOL] returned a pKi of 4.24. The Vm in data set [2] worked out at 2.687 ×10⁻⁴ m3/mol. Besides, the pAH50 in data set [3] was 3.85.

In turn, `Oc1ccccc1Cl` [2-CHLOROPHENOL] showed a pKi in data set [1] of 2.48. Besides, the Vm in data set [2] stood at 8.975 ×10⁻⁵ m3/mol. In addition, the pAH50 in data set [3] is listed as 2.94.

With `CCCCCCc1cc(O)c2c(c1)OC(C)(C)C1=C2CC(C)CC1` (centres undefined), the pKi in data set [1] was determined as 3.6. The Vm in data set [2] is 2.828 ×10⁻⁴ m3/mol. The pAH50 in data set [3] worked out at 4.03.

The molecule `CCCCCc1cc(O)c(C/C=C(\C)CCC=C(C)C)c(O)c1` [CANNABIGEROL] gave a pKi in data set [1] of 3.59. In data set [2], the Vm worked out at 2.861 ×10⁻⁴ m3/mol. In addition, the pAH50 in data set [3] is 4.66.

In turn, `CCCCCc1cc(O)c2c(c1)OC(C)(C)c1ccc(C)cc1-2` [CANNABINOL] gave a pKi in data set [1] of 3.26. Moreover, in data set [2], the Vm came out at 2.601 ×10⁻⁴ m3/mol. For the same molecule, the pAH50 in data set [3] is 4.4.

Molecule `CCCCCc1cc(O)c2c(c1)OC(C)(C)[C@@H]1CCC(C)=C[C@@H]21` [DRONABINOL] displayed a pKi in data set [1] of 6.52. For the same molecule, in data set [2], the Vm is 2.687 ×10⁻⁴ m3/mol. For the same molecule, the pAH50 in data set [3] is 4.1.

For the molecule `CC1=C(/C=C/C(C)=C/C=C/C(C)=C/CO)C(C)(C)CCC1` [RETINOL], in data set [1], the pKi was found to be 3.82. Moreover, the Vm in data set [2] is on record as 2.865 ×10⁻⁴ m3/mol. The pAH50 in data set [3] turned out to be 5.49.

The values are drawn from ChEMBL document CHEMBL3244214, “Molar volume relationships and the specific inhibition of a synaptosomal enzyme by psychoactive cannabinoids” (J Med Chem, 1978).
